From patent US20110136897A1, “TOLL-LIKE RECEPTOR 9 AGONISTS FOR THE TREATMENT OF ANXIETY-RELATED DISORDERS AND INFLAMMATORY DISORDERS” (YISSUM RESEARCH DEVELOPMENT COMPANY OF THE HEBREW …, priority 2008, published 2011)
In the oligonucleotide strings, read from the 5' end, every base follows the letter of its sugar. An asterisk marks phosphorothioate; unmarked linkages are phosphodiester. Other units and linkages are bracketed, terminal groups are in braces. A string of capitals states the bases alone. d = 2'-deoxy (DNA)

Columns and labels:
RAW264.7 cells [1] = assay: RT-PCR of inflammatory genes in RAW264.7 cells (Table 2); format: cell-based, mouse; details: 1 ug/ml
Experimental: Real-time PCR (RT-PCR): Brains were dissected and tissues stored frozen at −70° C. until use. Hippocampal RNA was extracted using the RNeasy Tissue Mini Kit (Qiagen, Germany). Total RNA was reverse-transcribed (200 ng) using Impromp-II reverse transcriptase (Promega, Madison, Wis.) as instructed. RT-PCR was performed using Power SYBR®Green PCR Master Mix (Applied Biosystems, UK) in a 7900 HT Sequence Detection System (Applied Biosystems, Foster City, Calif.). Quantification was assessed at the logarithmic phase of the PCR reaction. The PCR annealing temperature was 60° C. for all primer pairs. GAPDH was used as a house-keeping gene.
Shown are fold differences in RT-PCR products of RAW264.7 cells incubated with the noted doses of mEN101 or ODN1826. Note that ODN1826 affects IL1α, -1β, -6, -10, -12 and ICAM-1 gene expression at concentrations as low as 10 nM, whereas considerably higher doses of mEN101 are needed to attain similar effects. Nevertheless, mEN101 affects inflammatory gene expression even at 10 nM. 1 μg/ml LPS was used as positive control. (n=3, p<0.05 Mann-Whitney U-test compared to untreated controls, for all the data shown).

RAW264.7 cells [2] = assay: LPS-induced NO production with or without corticosterone after ODN1826 pre-incubation; format: cell-based, mouse; details: 10 or 50 mM corticosterone, LPS 1 μg/ml, 24 hours
Experimental: Determination of nitric oxygen (NO) production: The nitrite concentration in the medium was measured as an indicator of NO production according to the Griess reaction. 1×10^5 RAW264.7 cells were grown in 0.5 ml medium in 48-wells plate until 80% confluence was obtained. […] (1% sulfanilamide, 0.1% naphthylethylenediamine dihydrochloride, 5% H3PO4). Absorbance was read at 540 nm after 10 minutes using SPECTRAFluor Plus spectrophotometer (TECAN, UK).
In order to study the functional effects of TLR9 activation on GR signaling, RAW264.7 cells were incubated with varying concentrations of ODN1826 (SEQ ID NO: 2) for 24 hours and the medium was replaced with one containing LPS (1 μg/ml) with or without […] corticosterone (CORT) for an additional 24 hours. As expected, CORT blocked lipopolysaccharide (LPS)-induced NO production.

RAW264.7 cells [3] = assay: Nitric oxide (NO) production, Griess reaction; format: cell-based, mouse; details: for effect on 10 μM mEN101-driven increases in NO: added with 10 μM mEN101
Experimental: The mouse macrophage cell line RAW 264.7 (ATCC, Bethesda, Md.) was cultured in Dulbecco's modified Eagle's medium (DMEM) (Biological Industries) supplemented with 10% heat-inactivated fetal bovine serum (Biological Industries, Israel), 100 μg/ml streptomycin, 100 U/ml penicillin (Sigma) and 2 mM 1-glutamine (Biological Industries) at 37° C. in a humidified atmosphere with 5% CO2.
Determination of nitric oxide (NO) production: Nitrite concentration in the medium of cultured cells was measured as an indicator of NO production according to the Griess reaction. 1×10^5 mouse RAW264.7 cells were grown in 0.5 ml medium in 48-wells plate until 80% confluence was obtained. […] (1% sulfanilamide, 0.1% naphthylethylenediamine dihydrochloride, 5% H3PO4). Absorbance was read at 540 nm after 10 min using SPECTRAFluor Plus spectrophotometer (TECAN, UK).
To further characterize the TLR9 activating features of mEN101, mEN101 was applied to RAW264.7 cells (n=4 repeats) for 24 hours and the subsequent production of inflammatory markers was quantified. […] Addition of chloroquine (CQ), a weak base that perturbs endosomal pH and thus disturbs endosomal maturation, as well as the specific TLR9 inhibiting oligonucleotides ODN2088 and ODN TTAGGG (17), all blocked the 10 μM mEN101-driven increases in NO (p<0.015) (FIG. 2A). Thus, both gain and loss of function tests validated the nature of mEN101 as an endosomally active TLR9 activator, albeit a weak one.

RAW264.7 cells [4] = assay: Nitric oxide (NO) production, Griess reaction; format: cell-based, mouse; details: with 1 μM mEN101
splenocytes = assay: IFN-γ induction in splenocytes (ELISA); format: cell-based, mouse; details: mEN101 even at 10 μM doses
Experimental: Cell cultures: Spleens were removed from 5-6 week old FVB/N mice (Harlan Laboratories, Israel) and mashed until a homogeneous cell suspension was obtained. The suspension was centrifuged in a LSM Lymphocyte Separation Medium (MP Biomedicals, Solon, Ohio) and the mononuclear cell layer was separated. Cells were adjusted to a 5×10^6 cells/ml and cultured in RPMI 1640 (Biological Industries, Israel) supplemented with 5% FCS, […] L-glut, 100 μg/ml streptomycin, 100 U/ml penicillin and 5×10^−5 2-mercaptoethanol (Sigma, Israel).
ELISA: Serum was extracted by centrifuging blood in heparin-containing Microtainer LH vials (BD, Franklin Lakes, N.J.) for 10 minutes at 3000 g. Serum and cell-culture supernatants were analyzed for IL-1β, IL-6, TNF-α and IFN-γ using respective ELISA Ready-SET-Go (eBioscience, San Diego, Calif.) kits as instructed. Intensities were read using a Tecan SPECTRAFluor Plus spectrophotometer (Mannedorf, Switzerland).

RAW264.7 cells [5] = assay: HSP90 and GR immunostaining and colocalization, confocal microscopy; format: cell-based, mouse; details: 24 h, 1-10 μM
Experimental: Immunohistochemistry: Cells were fixed with 4% PFA in phosphate-buffered saline (PBS) for 15 minutes at room temperature (RT), washed and transferred to 100% MetOH at −20° C. for 5 minutes. Afterwards, cells were washed twice with a blocking medium containing PBS, 1% bovine serum albumin (BSA) and 0.01% NaN3 and then were incubated for 1 hour at RT with anti-HSP90 and anti-GR antibodies (1:50) (Santa Cruz Biotechnology, CA). After incubation, cells were washed twice in blocking medium and incubated with 1:100 secondary antibodies (Jackson Immunoresearch Laboratories, PA). Slides were mounted onto glass slides and visualized by confocal microscopy.

[6] = target: T1, glucocorticoid receptor (GR) (Mus musculus, UniProt P06537); assay: Glucocorticoid receptor whole cell [3H]dexamethasone binding assay, RAW264.7; format: cell-based; set-up: host or cells: RAW264.7 (mouse macrophage cell line)
T1 sequence (P06537 1-792): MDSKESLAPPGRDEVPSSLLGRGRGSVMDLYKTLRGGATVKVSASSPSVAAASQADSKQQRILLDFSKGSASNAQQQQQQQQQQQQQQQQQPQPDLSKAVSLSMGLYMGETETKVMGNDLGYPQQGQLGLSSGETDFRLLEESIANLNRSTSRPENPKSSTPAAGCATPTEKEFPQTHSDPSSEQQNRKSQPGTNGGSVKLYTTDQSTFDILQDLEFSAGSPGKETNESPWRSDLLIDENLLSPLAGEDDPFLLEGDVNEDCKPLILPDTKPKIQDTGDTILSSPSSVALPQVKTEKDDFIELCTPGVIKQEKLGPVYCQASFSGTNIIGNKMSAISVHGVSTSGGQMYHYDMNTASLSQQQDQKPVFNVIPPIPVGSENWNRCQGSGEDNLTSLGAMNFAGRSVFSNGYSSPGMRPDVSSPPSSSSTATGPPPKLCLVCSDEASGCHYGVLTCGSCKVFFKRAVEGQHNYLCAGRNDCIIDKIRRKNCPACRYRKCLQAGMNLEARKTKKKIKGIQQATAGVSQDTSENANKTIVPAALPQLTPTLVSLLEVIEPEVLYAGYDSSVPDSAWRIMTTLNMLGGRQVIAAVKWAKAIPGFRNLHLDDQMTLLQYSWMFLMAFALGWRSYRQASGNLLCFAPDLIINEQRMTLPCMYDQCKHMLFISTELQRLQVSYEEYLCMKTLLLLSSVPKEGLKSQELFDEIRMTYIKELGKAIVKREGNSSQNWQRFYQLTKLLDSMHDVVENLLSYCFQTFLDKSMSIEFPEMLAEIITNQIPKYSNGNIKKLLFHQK
Experimental: Glucocorticoid receptor assay: A whole cell binding assay was used to determine GR number and affinity. 0.7×10^6 RAW264.7 cells in 2 ml medium were grown in 24-wells plates until 80% confluence was obtained. After the appropriate treatment, the medium was replaced with a saturating concentration of 50 nM [^3H]dexamethasone (85.0 Ci/mmol) (Amersham Biosciences, NJ, USA) in 5 μM unlabeled dexamethasone (Sigma, Israel). After incubation for 2 hours at 37° C., cells were washed 6 times with cold PBS and lysed in 1M NaOH. Lysates were harvested and counted in a beta-spectrometer.
Since HSP90 modulates GR activity by increasing its affinity to glucocorticoids (GCs) it was wondered whether such an effect could be obtained by activating TLR9. In order to challenge that hypothesis, RAW264.7 cells were incubated with varying concentrations of hEN101 for 24 hours and the medium was subsequently replaced with one containing different concentration of 50 nM [^3H]dexamethasone and 5 μM unlabeled dexamethasone. After a 2 hour incubation, radioactivity was measured in a beta-spectrometer.

“lipopolysaccharide [LPS, reference compound]” was tested, and the “ICAM-1 RT-PCR product” value (RAW264.7 cells [1]) was −3.74 log2 from NT, the “IL1a RT-PCR product” value (RAW264.7 cells [1]) was 8.86 log2 from NT and the “IL1b RT-PCR product” value (RAW264.7 cells [1]) was 5.42 log2 from NT. The “IL6 RT-PCR product” value (RAW264.7 cells [1]) was 3.81 log2 from NT, the “IL10 RT-PCR product” value (RAW264.7 cells [1]) was 3.20 log2 from NT and the “IL12 RT-PCR product” value (RAW264.7 cells [1]) was 8.75 log2 from NT.

For C[C@]12C[C@H](O)[C@H]3[C@@H](CCC4=CC(=O)CC[C@@]43C)[C@@H]1CC[C@@H]2C(=O)CO [CORT, corticosterone], the “LPS-induced NO production” value (RAW264.7 cells [2]) was “blocked”.

CCN(CC)CCCC(C)Nc1ccnc2cc(Cl)ccc12 (centres unmarked) [chloroquine] was tested, and the “effect on 10 μM mEN101-driven increases in NO” value (RAW264.7 cells [3]) was “blocked” and the “effect on mEN101 effects on NO production (FIG. 2A legend)” value (RAW264.7 cells [4]) was “abolished”.

For “5′-ggGGTCAACGTTGAgggggg (GGGGTCAACGTTGAGGGGGG; listed as DNA, chemistry not given here) [ODN1585, type-A CpG ODN, Invivogen]”, the “NO production at doses parallel to ODN1826 (10-100 nM)” value (RAW264.7 cells [3]; 24 hours) was “totally ineffective”, the “dose needed to initiate detectable NO overproduction” value (RAW264.7 cells [3]; 24 hours) was 10 µM and the “induction of IFN-γ” value (splenocytes) was “stronger for ODN1585 than ODN1826”.

“5′-TTTAGGGTTAGGGTTAGGGTTAGGG-3′ (dT*dT*dT*dA*dG*dG*dG*dT*dT*dA*dG*dG*dG*dT*dT*dA*dG*dG*dG*dT*dT*dA*dG*dG*dG) [ODN TTAGGG]” was tested, and the “effect on 10 μM mEN101-driven increases in NO” value (RAW264.7 cells [3]) was “blocked” and the “effect on mEN101 effects on NO production (FIG. 2A legend)” value (RAW264.7 cells [4]) was “abolished”.

In the case of 5′-CTGCCACGTTCTCCTGCA*C*C*-3′ [hEN101], the GR level (RAW264.7 cells [5]) is reported as “not GR”, the “colocalization of HSP90 and GR signals” value (RAW264.7 cells [5]) is reported as “increased colocalization of HSP90 and GR signals” and the HSP90 level (RAW264.7 cells [5]; dose dependent) is reported as “upregulated HSP90”. For the same molecule, the “DEX (GR) Bmax, Scatchard plot analysis” value ([6]; 10 μM per FIG. 10D legend) was “increased”, the “concentration from which effects on [3H]dexamethasone incorporation are detectable” value ([6]; 24 hours pre-incubation) was at least 1 µM and the “whole cell [3H]dexamethasone incorporation / binding” value ([6]; 24 hours pre-incubation, dose-dependent) was “increased [^3H]dexamethasone incorporation”.
